Experimental data taken from ChEMBL document CHEMBL4831548, “Sesquiterpene Lactones from Sigesbeckia glabrescens Possessing Potent Anti-inflammatory Activity by Directly Binding to IKKα/β” (J Nat Prod, 2021).
Active and inactive are the calls of the source. No cut-off for these calls is given here.

Key:
[1] = system: RAW264.7; test: Inhibition of LPS-induced NO production in mouse RAW264.7 cells preincubated for 2 hrs followed by LPS stimulation for 24 hrs by Griess reagent based assay; type: functional, cell-based
[2] = system: RAW264.7; test: Cytotoxicity against mouse RAW264.7 cells assessed as effect on cell viability up to 20 uM measured after 24 hrs by CCK8 assay; type: cell-based; conditions: raw264.7, 24 h
[3] = system: RAW264.7; test: Anti-inflammatory activity against LPS-stimulated mouse RAW264.7 cells assessed as decrease in IL-6 production at 3 uM preincubated for 2 hrs followed by LPS stimulation and measured after 24 hrs by ELISA assay; type: functional, cell-based; conditions: time 26.0 hrs
[4] = system: RAW264.7; test: Inhibition of LPS-induced NO production in mouse RAW264.7 cells at 3 uM incubated for 2 hrs followed by LPS stimulation and measured after 24 hrs by Griess reagent based assay; type: functional, cell-based; conditions: time 26.0 hrs
[5] = system: RAW264.7; test: Inhibition of LPS-induced PGE2 production in mouse RAW264.7 cells at 3 uM preincubated for 2 hrs followed by LPS stimulation and measured after 24 hrs by ELISA assay; type: functional, cell-based; conditions: time 26.0 hrs
[6] = system: RAW264.7; test: Anti-inflammatory activity against LPS-stimulated mouse RAW264.7 cells assessed as decrease in TNF-alpha production at 3 uM preincubated for 2 hrs followed by LPS stimulation and measured after 24 hrs by ELISA assay; type: functional, cell-based; conditions: time 26.0 hrs
[7] = system: RAW264.7; test: Anti-inflammatory activity against LPS-stimulated mouse RAW264.7 cells assessed as decrease in IL-1 beta production at 3 uM preincubated for 2 hrs followed by LPS stimulation and measured after 24 hrs by ELISA assay; type: functional, cell-based; conditions: time 26.0 hrs
[8] = molecular target: T1, Inhibitor of nuclear factor kappa-B kinase subunit alpha/beta (Mus musculus) (UniProt Q60680+O88351); test: Inhibition of IKKalpha/beta in LPS-stimulated mouse RAW264.7 cells assessed as decrease in IkappaB degradation at 3 uM preincubated for 2 hrs followed by LPS stimulation for 10 mins by immunoblotting assay; conditions: time 130.0 min
[9] = system: RAW264.7; test: Anti-inflammatory activity against LPS-stimulated mouse RAW264.7 cells assessed as decrease in TNF-alpha production at 0.75 to 3 uM preincubated for 2 hrs followed by LPS stimulation and measured after 24 hrs by ELISA assay; type: functional, cell-based; conditions: dose 0.75-3 µM, time 26.0 hrs
[10] = system: RAW264.7; test: Inhibition of LPS-induced iNOS protein expression in mouse RAW264.7 cells at 0.75 to 3 uM preincubated for 2 hrs followed by LPS stimulation for 24 hrs by Western blot analysis; type: functional, cell-based; conditions: dose 0.75-3 µM, time 26.0 hrs
[11] = molecular target: T1, Inhibitor of nuclear factor kappa-B kinase subunit alpha/beta (Mus musculus); test: Inhibition of IKKalpha/beta phosphorylation in LPS-induced mouse RAW264.7 cells incubated for 2 hrs followed by LPS stimulation and measured after 5 mins by immunoblotting assay; conditions: dose 0.75-3 µM, time 125.0 min
[12] = molecular target: T1, Inhibitor of nuclear factor kappa-B kinase subunit alpha/beta (Mus musculus); test: Inhibition of IKKalpha/beta in LPS-stimulated mouse RAW264.7 cells assessed as inhibition of IkappaB alpha phosphorylation preincubated for 2 hrs followed by LPS stimulation for 5 mins by immunoblot anlaysis; conditions: dose 0.75-3 µM, time 125.0 min
[13] = system: RAW264.7; test: Inhibition of LPS-induced PGE2 production in mouse RAW264.7 cells preincubated for 2 hrs followed by LPS stimulation and measured after 24 hrs by ELISA assay; type: functional, cell-based; conditions: dose 0.75-3 µM, time 26.0 hrs
[14] = system: RAW264.7; test: Anti-inflammatory activity against LPS-stimulated mouse RAW264.7 cells assessed as decrease in IL-1 beta production at 0.75 to 3 uM preincubated for 2 hrs followed by LPS stimulation and measured after 24 hrs by ELISA assay; type: functional, cell-based; conditions: dose 0.75-3 µM, time 26.0 hrs
[15] = system: RAW264.7; test: Anti-inflammatory activity against LPS-stimulated mouse RAW264.7 cells assessed as decrease in IL-6 production at 0.75 to 3 uM preincubated for 2 hrs followed by LPS stimulation and measured after 24 hrs by ELISA assay; type: functional, cell-based; conditions: dose 0.75-3 µM, time 26.0 hrs
[16] = Covalent binding affinity to dithiothreitol assessed as compound-DTT adduct formation at 50 uM incubated for 30 mins by UPLC-MS analysis
[17] = molecular target: T1, Inhibitor of nuclear factor kappa-B kinase subunit alpha/beta (Mus musculus); test: Inhibition of IKKalpha/beta in LPS-stimulated mouse RAW264.7 cells assessed as inhibition of IkappaB alpha degradation at 3 uM preincubated with DTT for 30 mins and later incubated with cells for 2 hrs followed by LPS stimulation for 10 mins by immunoblot anlaysis; conditions: time 160.0 min
[18] = molecular target: T1, Inhibitor of nuclear factor kappa-B kinase subunit alpha/beta (Mus musculus); test: Inhibition of IKKalpha/beta in LPS-stimulated mouse RAW264.7 cells assessed as inhibition of IkappaB alpha phosphorylation at 3 uM preincubated with DTT for 30 mins and later incubated with cells for 2 hrs followed by LPS stimulation for 5 mins by immunoblot anlaysis; conditions: time 155.0 min
[19] = system: RAW264.7; test: Inhibition of LPS-induced COX2 protein expression in mouse RAW264.7 cells at 0.75 to 3 uM preincubated for 2 hrs followed by LPS stimulation for 24 hrs by Western blot analysis; type: functional, cell-based; conditions: dose 0.75-3 µM, time 26.0 hrs
[20] = system: RAW264.7; test: Inhibition of ERK phosphorylation in LPS-induced mouse RAW264.7 cells at 0.75 to 3 uM preincubated for 2 hrs followed by LPS stimulation and measured after 30 mins by immunoblotting assay; conditions: dose 0.75-3 µM, time 150.0 min
[21] = molecular target: T1, Inhibitor of nuclear factor kappa-B kinase subunit alpha/beta (Mus musculus); test: Inhibition of IKKalpha/beta in LPS-stimulated mouse RAW264.7 cells assessed as inhibition of NFkB p65 nuclear translocation at 3 uM preincubated for 2 hrs followed by LPS stimulation for 30 mins by immunoblotting assay; conditions: time 150.0 min
[22] = system: RAW264.7; test: Inhibition of LPS-induced NO production in mouse RAW264.7 cells at 3 uM preincubated with DTT for 30 mins and later incubated with cells for 2 hrs followed by LPS stimulation for 24 hrs by Griess-reagent based assay; type: functional, cell-based; conditions: time 1590.0 min
[23] = molecular target: MAP kinase p38 (Mus musculus) (UniProt P47811+O08911+Q9WUI1+Q9Z1B7); test: Inhibition of p38 MAPK phosphorylation in LPS-induced mouse RAW264.7 cells at 0.75 to 3 uM preincubated for 2 hrs followed by LPS stimulation and measured after 30 mins by immunoblotting assay; conditions: dose 0.75-3 µM, time 150.0 min
[24] = molecular target: Inhibitor of NF-kappa-B kinase alpha/beta (Homo sapiens) (UniProt O14920+O15111); test: Inhibition of IKKalpha/beta in human HEK293T cells assessed as reduction in thermal stability at 50 uM incubated for 30 mins followed by heating at temperature between 58 to 60 degC for 3 mins by CETSA analysis; type: cell-based; conditions: time 33.0 min
[25] = molecular target: c-Jun N-terminal kinase (Mus musculus) (UniProt Q91Y86+Q9WTU6+Q61831); test: Inhibition of JNK phosphorylation in LPS-induced mouse RAW264.7 cells at 0.75 to 3 uM preincubated for 2 hrs followed by LPS stimulation and measured after 30 mins by immunoblotting assay; conditions: dose 0.75-3 µM, time 150.0 min
Chain of c-Jun N-terminal kinase (Mus musculus) (Q61831 whole entry, looked up): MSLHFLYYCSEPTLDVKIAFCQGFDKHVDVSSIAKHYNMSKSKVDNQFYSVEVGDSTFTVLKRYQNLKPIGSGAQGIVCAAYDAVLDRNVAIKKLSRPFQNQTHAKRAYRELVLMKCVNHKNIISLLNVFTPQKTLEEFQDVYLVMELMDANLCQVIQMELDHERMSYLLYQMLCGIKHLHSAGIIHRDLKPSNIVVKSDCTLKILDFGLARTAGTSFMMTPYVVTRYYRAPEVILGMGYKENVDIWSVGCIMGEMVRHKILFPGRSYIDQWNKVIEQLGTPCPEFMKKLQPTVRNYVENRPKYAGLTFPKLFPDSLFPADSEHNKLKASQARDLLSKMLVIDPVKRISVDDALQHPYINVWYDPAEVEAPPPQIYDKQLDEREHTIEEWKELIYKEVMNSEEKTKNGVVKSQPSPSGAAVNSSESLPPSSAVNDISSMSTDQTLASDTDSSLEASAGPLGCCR
Chain of c-Jun N-terminal kinase (Mus musculus) (Q91Y86 whole entry, looked up): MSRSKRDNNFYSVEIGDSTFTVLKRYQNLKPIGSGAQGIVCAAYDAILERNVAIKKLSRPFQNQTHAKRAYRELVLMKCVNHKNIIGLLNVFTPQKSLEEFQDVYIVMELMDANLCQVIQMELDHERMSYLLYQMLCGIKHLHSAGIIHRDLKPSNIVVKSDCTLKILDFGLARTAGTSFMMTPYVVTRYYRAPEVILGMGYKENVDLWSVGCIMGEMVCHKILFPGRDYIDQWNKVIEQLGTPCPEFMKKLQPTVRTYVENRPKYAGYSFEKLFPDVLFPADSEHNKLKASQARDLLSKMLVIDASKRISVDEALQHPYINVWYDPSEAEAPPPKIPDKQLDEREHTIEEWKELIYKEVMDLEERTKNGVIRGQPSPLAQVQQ
Chain of c-Jun N-terminal kinase (Mus musculus) (Q9WTU6 whole entry, looked up): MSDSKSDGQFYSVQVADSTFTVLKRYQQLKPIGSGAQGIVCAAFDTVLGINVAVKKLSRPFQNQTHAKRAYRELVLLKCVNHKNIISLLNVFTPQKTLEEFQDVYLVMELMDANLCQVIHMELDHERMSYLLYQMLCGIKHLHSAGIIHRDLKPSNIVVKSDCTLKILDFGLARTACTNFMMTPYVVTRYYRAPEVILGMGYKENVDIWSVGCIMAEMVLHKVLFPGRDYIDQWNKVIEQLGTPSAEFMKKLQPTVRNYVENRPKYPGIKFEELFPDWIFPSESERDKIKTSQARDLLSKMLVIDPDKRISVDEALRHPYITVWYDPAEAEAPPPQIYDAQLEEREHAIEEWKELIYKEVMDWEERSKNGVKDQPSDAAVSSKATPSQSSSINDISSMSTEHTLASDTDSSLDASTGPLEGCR

| SMILES | IC50 [1] | Activity [2] | other results |
| --- | --- | --- | --- |
| C=C1C(=O)O[C@@H]2/C=C(\CO)CC/C=C(\C=O)[C@H](OC)[C@@H](OC(=O)/C(C)=C\C)[C@@H]12 | 7.9 µM | Non-Toxic | – |
| C=C(C)C(=O)O[C@H]1[C@H]2C(=C)C(=O)O[C@@H]2/C=C(\CO)CC/C=C(\CO)[C@@H]1OC(C)=O | 9.9 µM | Non-Toxic | – |
| C=C1C(=O)O[C@H]2[C@H]1[C@H](OC(=O)/C(C)=C/C)[C@@H](OC)C(=O)[C@@H]1CC[C@@](O)(CO)[C@H]21 | > 20 µM | Non-Toxic | – |
| C=C1C(=O)O[C@@H]2/C=C(\CO)CC/C=C(\C=O)[C@H](O)[C@@H](OC(=O)/C(C)=C\C)[C@@H]12 | 9.1 µM | Non-Toxic | – |
| C=C1C(=O)O[C@@H]2C[C@H](CO)CC/C=C(\CO)C[C@@H](OC(=O)C=C(C)C)[C@@H]12 | 5.6 µM | Non-Toxic | – |
| C=C1C(=O)O[C@@H]2/C=C3/CC/C=C(\[C@H](O)OC3)[C@H](O)[C@@H](OC(=O)/C(C)=C/C)[C@@H]12 | > 20 µM | Non-Toxic | – |
| C=C1C(=O)O[C@@H]2C[C@H](CO)CC/C=C(\COC(=O)C(C)C)C[C@@H](O)[C@@H]12 | > 20 µM | Non-Toxic | – |
| C=C1C(=O)O[C@@H]2C[C@H](COC(=O)/C(C)=C\C)CC/C=C(\CO)C[C@@H](O)[C@@H]12 | 1.4 µM | Non-Toxic | inhibition [8]: Active; Activity [9]: Active; inhibition [10]: Active; inhibition [11]: Dose-Dependent Effect; inhibition [12]: Dose-Dependent Effect; inhibition ([1]; time 26.0 hrs): Dose-Dependent Effect; inhibition [13]: Dose-Dependent Effect; Activity [14]: Active; Activity [15]: Active; Activity [16]: Active; inhibition [17]: inactive; inhibition [18]: inactive; inhibition [19]: Active; inhibition [20]: inactive; inhibition [21]: Active; inhibition [22]: inactive; inhibition [23]: inactive; inhibition [24]: Active; inhibition [25]: inactive |
| C=C1C(=O)O[C@@H]2/C=C(\CO)CC/C=C(\C=O)[C@H](OC(C)=O)[C@@H](OC(=O)/C(C)=C\C)[C@@H]12 | 16.5 µM | Non-Toxic | – |
| C=C1C(=O)O[C@@H]2/C=C(\CO)CC/C=C(\C=O)[C@H](OC(C)=O)[C@@H](OC(=O)/C(C)=C/C)[C@@H]12 | > 20 µM | Non-Toxic | – |
| C=C1C(=O)O[C@@H]2C[C@H]3CC/C=C(/C[C@@H](OC(=O)/C(C)=C/C)[C@@H]12)[C@H](O)OC3 | > 20 µM | Non-Toxic | – |
| C=C(C)C(=O)O[C@@H]1C=C(C=O)[C@@H]2CC[C@@](O)(CO)[C@@H]2[C@H]2OC(=O)C(=C)[C@@H]21 | 15.4 µM | Non-Toxic | – |
| C=C1C(=O)O[C@@H]2/C=C(\CO)CC/C=C(\CO)[C@H](OC(C)=O)[C@@H](OC(=O)/C(C)=C\C)[C@@H]12 | 9.3 µM | Non-Toxic | – |
| C=C1C(=O)O[C@@H]2/C=C(\C)CC/C=C(\CO)C[C@@H](O)[C@@H]12 | > 20 µM | Non-Toxic | – |
| C=C1C(=O)O[C@@H]2C[C@H](CO)CCC=C(CO)C[C@@H](OC(=O)C(C)C)[C@@H]12 | 3.4 µM | Non-Toxic | – |
| C=C(C)C(=O)O[C@@H]1C/C(CO)=C/CC[C@@H](CO)C[C@H]2OC(=O)C(=C)[C@H]12 | 2.7 µM | Non-Toxic | – |
| C=C1C(=O)O[C@@H]2C[C@H](CO)CC/C=C(\CO)C[C@@H](O)[C@@H]12 | > 20 µM | Non-Toxic | – |

Continued, in another order:

| IC50 [1] | SMILES | Activity [2] | other results |
| --- | --- | --- | --- |
| 3.5 µM | COc1cc(/C=C/C(=O)CC(=O)/C=C/c2ccc(O)c(OC)c2)ccc1O [CURCUMIN] | – | Activity [3]: Active; inhibition [4]: Active; inhibition [5]: Active; Activity [6]: Active; Activity [7]: Active |
| > 20 µM | C=C1C(=O)O[C@@H]2/C=C3/CC/C=C(\[C@H](O)OC3)[C@H](OC)[C@@H](OC(=O)/C(C)=C\C)[C@@H]12 | Non-Toxic | – |
| 10 µM | C=C1C(=O)O[C@@H]2/C=C(\CO)CC/C=C(\CO)[C@H](OC(C)=O)[C@@H](OC(=O)/C(C)=C/C)[C@@H]12 | Non-Toxic | – |
| 10.2 µM | C=C1C(=O)O[C@@H]2/C=C(\CO)CCC=C(CO)[C@H](OC(C)=O)[C@@H](OC(=O)C(C)C)[C@@H]12 | Non-Toxic | – |
| > 20 µM | C=C1C(=O)O[C@H]2[C@H]1[C@H](OC(=O)/C(C)=C\C)[C@@H](OC)C(=O)[C@@H]1CC[C@@](O)(CO)[C@H]21 | Non-Toxic | – |
| 2.3 µM | C=C1C(=O)O[C@@H]2C[C@H](CO)CC/C=C(\CO)C[C@@H](OC(=O)/C(C)=C\C)[C@@H]12 | Non-Toxic | – |
| > 20 µM | C=C1C(=O)O[C@@H]2/C=C(\CO)CC/C=C(\C=O)[C@H](OC)[C@@H](OC(=O)C(C)C)[C@@H]12 | Non-Toxic | – |
| 6.9 µM | C=C1C(=O)O[C@@H]2C[C@H](CO)CC/C=C(\CO)C[C@@H](OC(=O)/C(C)=C/C)[C@@H]12 | Non-Toxic | – |
